Laboratory results: patent publication US20260174863A1, “ISOMERICALLY PURE BETA-CYCLODEXTRIN DERIVATIVES AND USES THEREOF” (Beren Therapeutics P.B.C., priority 2023, published 2026)

Tests used:
[1] = tested on: differentiated human THP-1 monocytes; assay: Cytotoxicity assay, lactate dehydrogenase (LDH) release (CytoTox 96, Promega G1780); type: cell-based; details: samples from CEC assay, reference standard = non-isomerically pure hydroxypropyl beta-cyclodextrin
Method: Cytotoxicity was measured using a lactate dehydrogenase (LDH) assay, according to the manufacturer's protocol (CytoTox 96® Non-Radioactive Cytotoxicity Assay, Promega, G1780). Supernatants and cell lysates from CEC assay served as samples. Briefly, 50 uL of supernatant and cell lysates were transferred into separate transparent 96-well plates. 50 uL CytoTox 96© Reagent was added to the wells, mixed by pipetting, and incubated for 10 minutes protected from light. 50 μL of Stop Solution was added, mixed by pipetting, and absorbance (OD) was measured at 490 nm in a plate reader. Phenol red-free RPMI with 10% […] and Cell Lysis Buffer (abcam, ab196985) served as background controls. Percent (%) cytotoxicity was measured as OD supernatant/(OD supernatant+OD cell lysate)×100%.
Lactate dehydrogenase (LDH) released from cells treated with compounds of the disclosure at concentrations of 0.1 mM, 0.3 mM and 1 mM, relative to LDH) released from cells treated with a reference standard, are summarized in Table 2. In the table, A denotes compounds releasing LDH in an amount of <70% of that of the reference standard; B denotes compounds releasing LDH in an amount of 71-95% of that of the reference standard; 0 denotes compounds releasing LDH in an amount of 96%-105% of that of the reference standard; +denotes compounds releasing LDH in an amount of 106%-120% of that of the reference standard; and ++denotes compounds releasing LDH in an amount of >120% of that of the reference standard The reference standard is a non-isomerically pure hydroxypropyl beta-cyclodextrin.

[2] = tested on: differentiated human THP-1 monocytes; assay: CEC - Cholesterol Efflux Assay (abcam ab196985); type: cell-based; details: 4 h, reference standard = non-isomerically pure hydroxypropyl beta-cyclodextrin
Method: Cholesterol Efflux from differentiated human THP-1 monocytes was assessed according to the manufacturer's protocol (abcam, ab196985). Briefly, THP-1 monocytes were differentiated for 48 h in presence of 100 nM phorbol 12-myristate-13-acetate (PMA) in RPMI 1640 growth medium (10% FCS, 1% penicillin/streptomycin) in a humidified incubator (37° C., 5% CO2). Differentiated THP-1 macrophage-like cells were harvested, washed with PBS, resuspended in growth medium, seeded at 1×10^5 cells into 96-well plates, and allowed to adhere for 6h. Cells were washed with serum-free RPMI media, and labelled with 100 μL of fluorescent cholesterol labelling medium (50 uL Labeling Reagent+50 uL serum-free RPMI) for 1 h protected from light. Labeling medium was removed and replaced with 100 μL, 37° C. pre-warmed equilibration medium (50 uL Equilibration Buffer+[…] Reagent A +10 μL/mL Reagent B+50 uL serum-free RPMI) and incubated for 16±1 h in an incubator (37° C., 5% CO2). Equilibration medium was removed, and cells were washed with RPMI (w/o phenol red, w/o serum). Serum cholesterol acceptor was prepared by mixing 2 parts of Serum Treatment Reagent with 5 parts of human serum, incubated on ice for 20 minutes. The mix was centrifuged at 9,000×g for 10 minutes at 4° C., and supernatants were stored on ice until use. THP-1 cells were incubated for 4 h with 100 uL RPMI media (w/o phenol red, w/o serum), spiked with 10 uL of compound (10× stock in PBS) and 2 uL serum acceptor (2%), or RPMI media spiked with 10 uL PBS and 2 uL serum acceptor (negative control). Following incubation, plates were centrifuged and whole supernatants were transferred to an opaque 96-well plate. Remaining cells were lysed by adding 100 μL of Cell Lysis Buffer and shaking at 500 rpm for 25 minutes protected from light. Cell lysate was resuspended and transferred into an opaque 96-well. Plates containing supernatants or cell lysates were measured in a plate reader at 485 nm (excitation) and 523 nm (emission). Percent (%) cholesterol efflux was measured as RFU supernatant/(RFU supernatant +RFU cell lysate)×100%.
The cholesterol efflux from cells treated with compounds of the disclosure at concentrations of 0.1 mM, 0.3 mM and 1 mM, relative to cholesterol efflux from cells treated with a reference standard, are summarized in Table 1. In the table, A denotes compounds with a CEC of >126% of that of the reference standard and B denotes compounds with a CEC of 106% to 125% of that of the reference standard; 0 denotes compounds with a CEC of 96%-105% of that of the reference standard; and—denotes compounds with a CEC of 75%-95% of that of the reference standard. The reference standard is a non-isomerically pure hydroxypropyl beta-cyclodextrin.

Row | Structure (SMILES) | Release of lactate dehydrogenase from cells treated with compounds, relative to reference standard ([1]; 0.1 mM) | Release of lactate dehydrogenase from cells treated with compounds, relative to reference standard ([1]; 0.3 mM) | Release of lactate dehydrogenase from cells treated with compounds, relative to reference standard ([1]; 1 mM) | Cholesterol efflux from cells treated with compounds, relative to reference standard ([2]; 0.1 mM) | Cholesterol efflux from cells treated with compounds, relative to reference standard ([2]; 0.3 mM) | Cholesterol efflux from cells treated with compounds, relative to reference standard ([2]; 1 mM)
1 | COCCO[C@H]1[C@H]2O[C@H]3[C@H](O)[C@@H](OCCOC)[C@@H](O[C@H]4[C@H](O)[C@@H](OCCOC)[C@@H](O[C@H]5[C@H](O)[C@@H](OCCOC)[C@@H](O[C@H]6[C@H](O)[C@@H](OCCOC)[C@@H](O[C@H]7[C@H](O)[C@@H](OCCOC)[C@@H](O[C@H]8[C@H](O)[C@@H](OCCOC)[C@@H](O[C@@H]([C@@H]1O)[C@@H](CO)O2)O[C@@H]8CO)O[C@@H]7CO)O[C@@H]6CO)O[C@@H]5CO)O[C@@H]4CO)O[C@@H]3CO [Compound 1] | B (B denotes compounds releasing LDH in an amount of 71-95% of that of the reference standard) | B (B denotes compounds releasing LDH in an amount of 71-95% of that of the reference standard) | B (B denotes compounds releasing LDH in an amount of 71-95% of that of the reference standard) | 0 (0 denotes compounds with a CEC of 96%-105% of that of the reference standard) | 0 (0 denotes compounds with a CEC of 96%-105% of that of the reference standard) | 0 (0 denotes compounds with a CEC of 96%-105% of that of the reference standard)
2 | OCC(O)CO[C@H]1[C@H]2O[C@H]3[C@H](O)[C@@H](OCC(O)CO)[C@@H](O[C@H]4[C@H](O)[C@@H](OCC(O)CO)[C@@H](O[C@H]5[C@H](O)[C@@H](OCC(O)CO)[C@@H](O[C@H]6[C@H](O)[C@@H](OCC(O)CO)[C@@H](O[C@H]7[C@H](O)[C@@H](OCC(O)CO)[C@@H](O[C@H]8[C@H](O)[C@@H](OCC(O)CO)[C@@H](O[C@@H]([C@@H]1O)[C@@H](CO)O2)O[C@@H]8CO)O[C@@H]7CO)O[C@@H]6CO)O[C@@H]5CO)O[C@@H]4CO)O[C@@H]3CO (stereo partly drawn) [Compound 3] | ++ (++denotes compounds releasing LDH in an amount of >120% of that of the reference standard) | + (+denotes compounds releasing LDH in an amount of 106%-120% of that of the reference standard) | 0 (0 denotes compounds releasing LDH in an amount of 96%-105% of that of the reference standard) | − (—denotes compounds with a CEC of 75%-95% of that of the reference standard) | − (—denotes compounds with a CEC of 75%-95% of that of the reference standard) | − (—denotes compounds with a CEC of 75%-95% of that of the reference standard)
3 | CC(O)CO[C@@H]1[C@@H](O)[C@H]2O[C@H]3[C@H](OCC(C)O)[C@@H](O)[C@@H](O[C@H]4[C@H](OCC(C)O)[C@@H](O)[C@@H](O[C@H]5[C@H](OCC(C)O)[C@@H](O)[C@@H](O[C@H]6[C@H](OCC(C)O)[C@@H](O)[C@@H](O[C@H]7[C@H](OCC(C)O)[C@@H](O)[C@@H](O[C@H]8[C@H](OCC(C)O)[C@@H](O)[C@@H](O[C@@H]1[C@@H](CO)O2)O[C@@H]8CO)O[C@@H]7CO)O[C@@H]6CO)O[C@@H]5CO)O[C@@H]4CO)O[C@@H]3CO (stereo partly drawn) [Compound 4] | ++ (++denotes compounds releasing LDH in an amount of >120% of that of the reference standard) | ++ (++denotes compounds releasing LDH in an amount of >120% of that of the reference standard) | ++ (++denotes compounds releasing LDH in an amount of >120% of that of the reference standard) | − (—denotes compounds with a CEC of 75%-95% of that of the reference standard) | − (—denotes compounds with a CEC of 75%-95% of that of the reference standard) | − (—denotes compounds with a CEC of 75%-95% of that of the reference standard)
4 | CC(O)CO[C@H]1[C@H]2O[C@H]3[C@H](O)[C@@H](OCC(C)O)[C@@H](O[C@H]4[C@H](O)[C@@H](OCC(C)O)[C@@H](O[C@H]5[C@H](O)[C@@H](OCC(C)O)[C@@H](O[C@H]6[C@H](O)[C@@H](OCC(C)O)[C@@H](O[C@H]7[C@H](O)[C@@H](OCC(C)O)[C@@H](O[C@H]8[C@H](O)[C@@H](OCC(C)O)[C@@H](O[C@@H]([C@@H]1O)[C@@H](CO)O2)O[C@@H]8CO)O[C@@H]7CO)O[C@@H]6CO)O[C@@H]5CO)O[C@@H]4CO)O[C@@H]3CO (stereo partly drawn) [Compound 5] | 0 (0 denotes compounds releasing LDH in an amount of 96%-105% of that of the reference standard) | 0 (0 denotes compounds releasing LDH in an amount of 96%-105% of that of the reference standard) | 0 (0 denotes compounds releasing LDH in an amount of 96%-105% of that of the reference standard) | − (—denotes compounds with a CEC of 75%-95% of that of the reference standard) | − (—denotes compounds with a CEC of 75%-95% of that of the reference standard) | − (—denotes compounds with a CEC of 75%-95% of that of the reference standard)
5 | CC(C)(O)CO[C@@H]1[C@@H](O)[C@H]2O[C@H]3[C@H](OCC(C)(C)O)[C@@H](O)[C@@H](O[C@H]4[C@H](OCC(C)(C)O)[C@@H](O)[C@@H](O[C@H]5[C@H](OCC(C)(C)O)[C@@H](O)[C@@H](O[C@H]6[C@H](OCC(C)(C)O)[C@@H](O)[C@@H](O[C@H]7[C@H](OCC(C)(C)O)[C@@H](O)[C@@H](O[C@H]8[C@H](OCC(C)(C)O)[C@@H](O)[C@@H](O[C@@H]1[C@@H](CO)O2)O[C@@H]8CO)O[C@@H]7CO)O[C@@H]6CO)O[C@@H]5CO)O[C@@H]4CO)O[C@@H]3CO [Compound 6] | 0 (0 denotes compounds releasing LDH in an amount of 96%-105% of that of the reference standard) | + (+denotes compounds releasing LDH in an amount of 106%-120% of that of the reference standard) | + (+denotes compounds releasing LDH in an amount of 106%-120% of that of the reference standard) | 0 (0 denotes compounds with a CEC of 96%-105% of that of the reference standard) | − (—denotes compounds with a CEC of 75%-95% of that of the reference standard) | − (—denotes compounds with a CEC of 75%-95% of that of the reference standard)
